For 25 compounds, EC50 results are on record in US10689367B2, “Triazole pyridyl compounds as agonists of the APJ receptor” (AMGEN INC., priority 2016, dated 2020).

Molecules are shown by their SMILES.

The EC50 is the concentration that produces a half-maximal response.

For this experiment, the target named is human APJ receptor (Homo sapiens (Human), UniProt P35414). Put plainly: [35S]GTPγS binding assay on membranes from CHO cells stably expressing human APJ receptor. The class given is biochemical. As to conditions: membranes of CHO cells stably expressing human APJ receptor, read-out: Activity hAPJ SPA EC50 IP. A digest of the protocol: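 [35S]GTPγS binding measured on membranes from CHO cells stably expressing FLAG-tagged human APJ, with GDP, MgCl2 and NaCl levels optimized beforehand. Incubation 90 min at RT, imager read-out; EC50 from non-linear regression, averaged over several independent experiments.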
human APJ receptor, sequence (P35414 whole entry): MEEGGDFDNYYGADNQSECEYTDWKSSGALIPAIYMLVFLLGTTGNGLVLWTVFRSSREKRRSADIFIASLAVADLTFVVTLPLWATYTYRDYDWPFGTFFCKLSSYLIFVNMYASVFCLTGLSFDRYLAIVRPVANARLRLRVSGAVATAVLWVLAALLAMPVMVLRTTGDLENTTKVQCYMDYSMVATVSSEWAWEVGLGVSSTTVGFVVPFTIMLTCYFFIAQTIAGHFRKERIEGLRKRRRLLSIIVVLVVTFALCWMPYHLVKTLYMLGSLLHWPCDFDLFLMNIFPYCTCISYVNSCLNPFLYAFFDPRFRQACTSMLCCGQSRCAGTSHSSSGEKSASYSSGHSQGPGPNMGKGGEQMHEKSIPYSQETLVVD
(Binding of GTPγS marks nucleotide exchange on a G protein.)
On to `COc1cccc(-c2nnc(NS(=O)(=O)[C@@H](C)[C@H](OC)c3ncc(Cl)cn3)n2[C@@H](C)c2ncc(C)o2)n1` (single isomer, unassigned) [Example 256.0, (1R,2S)-1-(5-chloro-2-pyrimidinyl)-1-methoxy-N-(5-(6-methoxy-2-pyridinyl)-4-((1S)-1-(5-methyl-1,3-oxazol-2-yl)ethyl)-4H-1,2,4-triazol-3-yl)-2-propanesulfonamide or (1R,2S)-1-(5-chloro-2-pyrimidinyl)-1-methoxy-N-(5-(6-methoxy-2-pyridinyl)-4-((1R)-1-(5-methyl-1,3-oxazol-2-yl)ethyl)-4H-1,2,4-triazol-3-yl)-2-propanesulfonamide], for which the EC50 amounted to 0.48 nM.
Take `COCC(COC)n1c(NS(=O)(=O)[C@@H](C)[C@@H](OC(C)C)c2ncc(F)cn2)nnc1-c1cccc(OC)n1` [Example 171.0, (1S,2S)-N-(4-(1,3-dimethoxy-2-propanyl)-5-(6-methoxy-2-pyridinyl)-4H-1,2,4-triazol-3-yl)-1-(5-fluoro-2-pyrimidinyl)-1-(2-propanyloxy)-2-propanesulfonamide]: the EC50 is 0.37 nM.
Consider `CC[C@H]([C@@H]1CCCCO1)n1c(NS(=O)(=O)[C@@H](C)[C@H](OC)c2ncc(C)cn2)nnc1-c1cncc(C)c1` (single isomer, unassigned) [Example 335.0], for which the concentration for a half-maximal effect (EC50) was 14 nM.
The value for `COc1cccc(-c2nnc(NS(=O)(=O)[C@@H](C)[C@H](C)c3ncc(Cl)cn3)n2[C@@H](C)c2ncn(C)n2)n1` (single isomer, unassigned) [Example 237.0, (2S,3R)-3-(5-chloro-2-pyrimidinyl)-N-(5-(6-methoxy-2-pyridinyl)-4-((1S)-1-(1-methyl-1H-1,2,4-triazol-3-yl)ethyl)-4H-1,2,4-triazol-3-yl)-2-butanesulfonamide or (2S,3R)-3-(5-chloro-2-pyrimidinyl)-N-(5-(6-methoxy-2-pyridinyl)-4-((1R)-1-(1-methyl-1H-1,2,4-triazol-3-yl)ethyl)-4H-1,2,4-triazol-3-yl)-2-butanesulfonamide] was 130 nM.
`COC[C@H](C)n1c(NS(=O)(=O)[C@@H](C)[C@H](C)c2ncc(Cl)cn2)nnc1-c1ccccn1` [Example 175.0, (2S,3R)-3-(5-chloro-2-pyrimidinyl)-N-(4-((2S)-1-methoxy-2-propanyl)-5-(2-pyridinyl)-4H-1,2,4-triazol-3-yl)-2-butanesulfonamide]: the 50% effective concentration (EC50) is 30 nM.
To `COC[C@H](C)n1c(NS(=O)(=O)[C@@H](C)[C@@H](OC(C)C)c2ncc(Cl)cn2)nnc1-c1cccc(OC)n1` [Example 179.0, (1S,2S)-1-(5-chloro-2-pyrimidinyl)-N-(4-((2S)-1-methoxy-2-propanyl)-5-(6-methoxy-2-pyridinyl)-4H-1,2,4-triazol-3-yl)-1-(2-propanyloxy)-2-propanesulfonamide] belongs 0.64 nM; to `COc1cccc(-c2nnc(NS(=O)(=O)[C@@H](C)[C@H](OC)c3ncc(Cl)cn3)n2[C@@H](C)c2ccno2)n1` (single isomer, unassigned) [Example 213.0, (1R,2S)-1-(5-chloro-2-pyrimidinyl)-1-methoxy-N-(5-(6-methoxy-2-pyridinyl)-4-((1R)-1-(1,2-oxazol-5-yl)ethyl)-4H-1,2,4-triazol-3-yl)-2-propanesulfonamide or (1R,2S)-1-(5-chloro-2-pyrimidinyl)-1-methoxy-N-(5-(6-methoxy-2-pyridinyl)-4-((1S)-1-(1,2-oxazol-5-yl)ethyl)-4H-1,2,4-triazol-3-yl)-2-propanesulfonamide], 0.66 nM.
To `COC[C@@H](C)n1c(NS(=O)(=O)[C@@H](C)[C@H](OC)c2ncc(Cl)cn2)nnc1-c1ccccn1` [Example 124.0] belongs 24 nM; to `CO[C@H](c1ncc(Cl)cn1)[C@H](C)S(=O)(=O)Nc1nnc(-c2cncc(C)c2)n1Cc1ccon1` [Example 262.0, (1R,2S)-1-(5-chloropyrimidin-2-yl)-N-(4-(isoxazol-3-ylmethyl)-5-(5-methylpyridin-3-yl)-4H-1,2,4-triazol-3-yl)-1-methoxypropane-2-sulfonamide], 200 nM; to `CC[C@H]([C@@H]1CCCCO1)n1c(NS(=O)(=O)[C@@H](C)[C@H](OC)c2ncc(Cl)cn2)nnc1-c1cccc(OC)n1` (single isomer, unassigned) [Example 327.0], 0.11 nM.
Consider `COCC(COC)n1c(NS(=O)(=O)[C@@H](C)[C@H](OC)c2ncc(Cl)cn2)nnc1-c1cccc(OC)n1` [Example 6.0, (1R,2S)-1-(5-chloro-2-pyrimidinyl)-1-methoxy-N-(4-(2-methoxy-1-(methoxymethyl)ethyl)-5-(6-methoxy-2-pyridinyl)-4H-1,2,4-triazol-3-yl)-2-propanesulfonamide], for which the EC50 is 0.3 nM.
The value for `COCCn1c(NS(=O)(=O)[C@@H](C)[C@H](OC)c2ncc(Cl)cn2)nnc1-c1cccc(OC)n1` [Example 3.0, (1R,2S)-1-(5-chloro-2-pyrimidinyl)-1-methoxy-N-(4-(2-methoxyethyl)-5-(6-methoxy-2-pyridinyl)-4H-1,2,4-triazol-3-yl)-2-propanesulfonamide] was 2.8 nM.
To `COc1cccc(-c2nnc(NS(=O)(=O)[C@@H](C)[C@H](OC)c3ncc(Cl)cn3)n2Cc2ccno2)n1` [Example 266.0, (1R,2S)-1-(5-chloropyrimidin-2-yl)-N-(4-(isoxazol-5-ylmethyl)-5-(6-methoxypyridin-2-yl)-4H-1,2,4-triazol-3-yl)-1-methoxypropane-2-sulfonamide] belongs 9.6 nM; to `CC[C@H]([C@@H]1CCCCO1)n1c(NS(=O)(=O)[C@@H](C)[C@H](OC)c2ncc(C)cn2)nnc1-c1cccc(OC)n1` (single isomer, unassigned) [Example 330.0], 0.23 nM.
To `COc1cnc([C@@H](C)[C@H](C)S(=O)(=O)Nc2nnc(-c3cccc(OC)n3)n2C2CC2)nc1` [Example 119.0] belongs 28 nM; to `COc1cccc(-c2nnc(NS(=O)(=O)[C@@H](C)[C@@H](OC(C)C)c3ncc(C)cn3)n2Cc2ccon2)n1` [Example 261.0, (1S,2S)-1-isopropoxy-N-(4-(isoxazol-3-ylmethyl)-5-(6-methoxypyridin-2-yl)-4H-1,2,4-triazol-3-yl)-1-(5-methylpyrimidin-2-yl)propane-2-sulfonamide], 5.2 nM; to `COc1cccc(-c2nnc(NS(=O)(=O)[C@@H](C)[C@H](OC)c3ncc(Cl)cn3)n2[C@@H]2CC[C@H]2OC)n1` (single isomer, unassigned) [Example 162.0, (1R,2S)-1-(5-Chloropyrimidin-2-yl)-1-methoxy-N-(4-((1R,2R)-2-methoxycyclobutyl)-5-(6-methoxypyridin-2-yl)-4H-1,2,4-triazol-3-yl)propane-2-sulfonamide or (1R,2S)-1-(5-chloropyrimidin-2-yl)-1-methoxy-N-(4-((1S,2S)-2-methoxycyclobutyl)-5-(6-methoxypyridin-2-yl)-4H-1,2,4-triazol-3-yl)propane-2-sulfonamide], 2.8 nM.
For `CC[C@H]([C@@H]1CCCCO1)n1c(NS(=O)(=O)[C@@H](C)[C@H](OC)c2ncc(C)cn2)nnc1-c1cccc(OC)n1` (single isomer, unassigned) [Example 331.0], the EC50 is 0.6 nM.
In the case of `Cc1cncc(-c2nnc(NS(=O)(=O)[C@@H](C)[C@@H](OC(C)C)c3ncc(Cl)cn3)n2C2CC2)c1` [Example 129.0], the EC50 is 66 nM.
The value for `COc1cccc(-c2nnc(NS(=O)(=O)[C@@H](C)[C@H](OC)c3ncc(Cl)cn3)n2[C@H](C)c2cncs2)n1` (single isomer, unassigned) [Example 347.0, (1R,2S)-1-(5-chloropyrimidin-2-yl)-1-methoxy-N-(5-(6-methoxypyridin-2-yl)-4-((R)-1-(thiazol-5-yl)ethyl)-4H-1,2,4-triazol-3-yl)propane-2-sulfonamide or (1R,2S)-1-(5-chloropyrimidin-2-yl)-1-methoxy-N-(5-(6-methoxypyridin-2-yl)-4-((S)-1-(thiazol-5-yl)ethyl)-4H-1,2,4-triazol-3-yl)propane-2-sulfonamide] was 0.48 nM; that for `COc1cccc(-c2nnc(NS(=O)(=O)[C@@H](C)[C@H](OC)c3ncc(Cl)cn3)n2[C@H](C)[C@@H]2CCCCO2)n1` (single isomer, unassigned) [Example 318.0] was 2.4 nM; that for `COc1cccc(-c2nnc(NS(=O)(=O)[C@@H](C)[C@H](OC)c3ncc(Cl)cn3)n2Cc2ccon2)n1` [Example 76.0] was 3.3 nM.
The value for `COc1cccc(-c2nnc(NS(=O)(=O)[C@@H](C)[C@@H](OC(C)C)c3cnc(C)cn3)n2C2CC2)n1` [Example 123.0] was 5.6 nM.
To `COc1cccc(-c2nnc(NS(=O)(=O)[C@@H](C)[C@H](C)c3ncc(Cl)cn3)n2[C@@H](C)c2ccon2)n1` (racemic) [Example 267.0, (2S,3R)-3-(5-chloropyrimidin-2-yl)-N-(4-((R)-1-(isoxazol-3-yl)ethyl)-5-(6-methoxypyridin-2-yl)-4H-1,2,4-triazol-3-yl)butane-2-sulfonamide or (2S,3R)-3-(5-chloropyrimidin-2-yl)-N-(4-((S)-1-(isoxazol-3-yl)ethyl)-5-(6-methoxypyridin-2-yl)-4H-1,2,4-triazol-3-yl)butane-2-sulfonamide] belongs 4.2 nM; to `COc1cccc(-c2nnc(NS(=O)(=O)[C@@H](C)[C@H](C)c3ncc(Cl)cn3)n2[C@@H](C)c2ncnn2C)n1` (single isomer, unassigned) [Example 250.0], 370 nM.
